Reference: ChEMBL document CHEMBL4371076 (J Med Chem, 2019)

How the values were obtained:
[1] = biological target: T1, Sodium channel protein type 9 subunit alpha (Homo sapiens, UniProt Q15858); test: Inhibition of recombinant human Nav1.7 expressed in HEK293 cells at -70 mV holding potential by patch clamp electrophysiology method; format: cell-based
Cytochrome P450 2C19 [2] = biological target: T2, Cytochrome P450 2C19 (Homo sapiens, UniProt P33261); test: Inhibition of CYP2C19 in human liver microsomes; format: ADME; conditions: human, microsomes
T2 sequence (P33261 whole entry): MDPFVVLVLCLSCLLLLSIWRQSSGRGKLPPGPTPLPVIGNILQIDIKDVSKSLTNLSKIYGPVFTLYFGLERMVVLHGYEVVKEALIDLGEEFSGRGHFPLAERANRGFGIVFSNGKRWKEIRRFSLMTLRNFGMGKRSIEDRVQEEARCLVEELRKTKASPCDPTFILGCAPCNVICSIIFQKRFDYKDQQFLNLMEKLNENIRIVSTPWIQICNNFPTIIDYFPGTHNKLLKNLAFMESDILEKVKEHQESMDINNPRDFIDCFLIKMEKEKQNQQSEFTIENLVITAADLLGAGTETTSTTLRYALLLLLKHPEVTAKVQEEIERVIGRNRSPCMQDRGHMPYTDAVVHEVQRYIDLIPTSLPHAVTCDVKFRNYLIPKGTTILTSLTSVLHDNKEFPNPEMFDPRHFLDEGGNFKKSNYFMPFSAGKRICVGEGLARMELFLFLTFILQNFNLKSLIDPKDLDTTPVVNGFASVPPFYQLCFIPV

Cytochrome P450 2D6 [3] = biological target: T3, Cytochrome P450 2D6 (Homo sapiens, UniProt P10635); test: Time-dependant inhibition of CYP2D6 in human liver microsomes; format: ADME
T3 sequence (P10635 whole entry): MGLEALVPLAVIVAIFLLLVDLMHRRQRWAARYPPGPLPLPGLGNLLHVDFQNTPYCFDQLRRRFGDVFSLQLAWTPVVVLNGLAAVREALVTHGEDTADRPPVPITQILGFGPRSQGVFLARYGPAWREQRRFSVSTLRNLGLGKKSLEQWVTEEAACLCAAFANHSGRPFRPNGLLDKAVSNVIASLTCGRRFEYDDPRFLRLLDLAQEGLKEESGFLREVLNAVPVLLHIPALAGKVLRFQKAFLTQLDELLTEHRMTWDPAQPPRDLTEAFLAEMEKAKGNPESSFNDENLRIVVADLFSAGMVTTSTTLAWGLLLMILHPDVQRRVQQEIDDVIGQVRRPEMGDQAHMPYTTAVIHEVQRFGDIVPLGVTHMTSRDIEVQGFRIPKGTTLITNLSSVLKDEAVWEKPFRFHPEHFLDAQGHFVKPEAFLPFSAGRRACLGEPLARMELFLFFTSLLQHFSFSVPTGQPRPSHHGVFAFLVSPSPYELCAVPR

[4] = Metabolic stability in mouse liver microsomes assessed as parent compound remaining at 0.5 uM after 10 mins; format: ADME, Microsome; conditions: read-out: Stability
[5] = Permeability from basolateral to apical side in human Caco2 cells; format: ADME, cell-based; conditions: Caco-2, read-out: permeability
Cytochrome P450 2C8 [6] = biological target: T4, Cytochrome P450 2C8 (Homo sapiens, UniProt P10632); test: Time-dependant inhibition of CYP2C8 in human liver microsomes; format: ADME
T4 sequence (P10632 whole entry): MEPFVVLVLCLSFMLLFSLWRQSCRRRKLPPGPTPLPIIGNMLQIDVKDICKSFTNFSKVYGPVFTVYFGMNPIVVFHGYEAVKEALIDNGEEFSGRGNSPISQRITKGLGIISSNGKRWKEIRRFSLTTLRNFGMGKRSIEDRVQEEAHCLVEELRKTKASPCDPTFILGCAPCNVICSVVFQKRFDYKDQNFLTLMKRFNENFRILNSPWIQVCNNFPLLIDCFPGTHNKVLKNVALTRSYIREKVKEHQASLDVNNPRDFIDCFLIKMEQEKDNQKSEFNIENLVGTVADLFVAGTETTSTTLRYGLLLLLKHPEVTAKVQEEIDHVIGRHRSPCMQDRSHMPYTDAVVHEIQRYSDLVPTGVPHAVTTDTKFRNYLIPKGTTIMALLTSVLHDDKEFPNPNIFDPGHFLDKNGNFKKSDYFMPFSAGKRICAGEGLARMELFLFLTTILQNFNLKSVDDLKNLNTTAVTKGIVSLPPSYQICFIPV

[7] = Metabolic stability in rat liver microsomes assessed as parent compound remaining at 0.5 uM after 10 mins; format: ADME, Microsome; conditions: read-out: Stability
[8] = Efflux ratio of permeability in human Caco2 cells; format: ADME, cell-based; conditions: Caco-2
[9] = Metabolic stability in human liver microsomes assessed as parent compound remaining at 0.5 uM after 10 mins; format: ADME, Microsome; conditions: read-out: Stability
Cytochrome P450 2D6 [10] = biological target: T3, Cytochrome P450 2D6; test: Inhibition of CYP2D6 in human liver microsomes; format: ADME; conditions: human, microsomes
[11] = Permeability of the compound at pH 7.4 by PAMPA; format: ADME; conditions: read-out: permeability
Cytochrome P450 2C9 [12] = biological target: T5, Cytochrome P450 2C9 (Homo sapiens, UniProt P11712); test: Inhibition of CYP2C9 in human liver microsomes; format: ADME; conditions: human, microsomes
T5 sequence (P11712 whole entry): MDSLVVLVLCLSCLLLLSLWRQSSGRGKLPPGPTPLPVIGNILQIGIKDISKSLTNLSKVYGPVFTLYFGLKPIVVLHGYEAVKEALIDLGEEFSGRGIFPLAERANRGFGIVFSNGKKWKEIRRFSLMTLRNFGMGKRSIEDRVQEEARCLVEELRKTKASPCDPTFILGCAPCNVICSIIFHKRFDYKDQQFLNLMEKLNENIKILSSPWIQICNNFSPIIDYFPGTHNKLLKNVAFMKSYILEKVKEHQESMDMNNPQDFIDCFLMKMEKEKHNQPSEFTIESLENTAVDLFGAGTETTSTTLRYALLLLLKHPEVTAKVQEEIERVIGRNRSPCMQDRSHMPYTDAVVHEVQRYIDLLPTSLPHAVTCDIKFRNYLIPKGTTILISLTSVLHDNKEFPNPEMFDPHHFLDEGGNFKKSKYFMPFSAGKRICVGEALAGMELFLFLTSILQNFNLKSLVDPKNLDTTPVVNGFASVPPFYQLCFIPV

Cytochrome P450 2B6 [13] = biological target: T6, Cytochrome P450 2B6 (Homo sapiens, UniProt P20813); test: Inhibition of CYP2B6 in human liver microsomes; format: ADME; conditions: human, microsomes
T6 sequence (P20813 whole entry): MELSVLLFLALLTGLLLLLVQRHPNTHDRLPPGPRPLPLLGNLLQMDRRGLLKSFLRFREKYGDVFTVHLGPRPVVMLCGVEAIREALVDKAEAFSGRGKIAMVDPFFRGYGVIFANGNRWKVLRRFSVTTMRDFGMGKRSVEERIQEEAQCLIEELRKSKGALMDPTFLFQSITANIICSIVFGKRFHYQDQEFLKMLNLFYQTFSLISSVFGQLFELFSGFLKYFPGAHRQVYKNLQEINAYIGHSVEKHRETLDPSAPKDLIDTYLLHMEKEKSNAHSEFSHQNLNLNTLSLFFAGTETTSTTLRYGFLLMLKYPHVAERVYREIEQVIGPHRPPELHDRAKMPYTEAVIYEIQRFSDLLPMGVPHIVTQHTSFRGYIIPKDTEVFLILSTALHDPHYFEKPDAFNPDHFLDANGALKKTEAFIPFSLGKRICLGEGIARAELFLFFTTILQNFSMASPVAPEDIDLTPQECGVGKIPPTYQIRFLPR

Cytochrome P450 3A4 [14] = biological target: T7, Cytochrome P450 3A4 (Homo sapiens, UniProt P08684); test: Time-dependant inhibition of CYP3A4 in human liver microsomes; format: ADME
T7 sequence (P08684 whole entry): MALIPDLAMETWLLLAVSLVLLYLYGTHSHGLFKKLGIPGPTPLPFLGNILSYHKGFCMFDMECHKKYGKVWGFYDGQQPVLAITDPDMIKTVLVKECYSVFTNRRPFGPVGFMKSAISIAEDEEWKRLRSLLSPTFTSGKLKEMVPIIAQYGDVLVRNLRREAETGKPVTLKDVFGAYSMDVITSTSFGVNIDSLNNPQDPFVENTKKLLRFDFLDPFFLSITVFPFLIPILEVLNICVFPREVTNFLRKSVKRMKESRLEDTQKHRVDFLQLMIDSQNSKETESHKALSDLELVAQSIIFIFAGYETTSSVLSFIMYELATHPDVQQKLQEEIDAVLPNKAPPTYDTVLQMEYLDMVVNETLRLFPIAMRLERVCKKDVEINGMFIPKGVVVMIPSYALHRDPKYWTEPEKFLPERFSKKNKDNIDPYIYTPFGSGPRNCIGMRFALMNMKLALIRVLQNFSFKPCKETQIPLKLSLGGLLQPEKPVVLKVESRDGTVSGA

Cytochrome P450 2C19 [15] = biological target: T2, Cytochrome P450 2C19; test: Time-dependant inhibition of CYP2C19 in human liver microsomes; format: ADME
[16] = Fraction unbound in human plasma; format: ADME, cell-free
Cytochrome P450 2B6 [17] = biological target: T6, Cytochrome P450 2B6; test: Time-dependant inhibition of CYP2B6 in human liver microsomes; format: ADME
Cytochrome P450 2C9 [18] = biological target: T5, Cytochrome P450 2C9; test: Time-dependant inhibition of CYP2C9 in human liver microsomes; format: ADME
Cytochrome P450 3A4 [19] = biological target: T7, Cytochrome P450 3A4; test: Inhibition of CYP3A4 in human liver microsomes; format: ADME; conditions: human, microsomes
[20] = Fraction unbound in mouse plasma; format: ADME, cell-free
[21] = Permeability from apical to basolateral side in human Caco2 cells; format: ADME, cell-based; conditions: Caco-2, read-out: permeability
Cytochrome P450 2C8 [22] = biological target: T4, Cytochrome P450 2C8; test: Inhibition of CYP2C8 in human liver microsomes; format: ADME; conditions: human, microsomes
[23] = biological target: T1, Sodium channel protein type 9 subunit alpha; test: Inhibition of human Nav1.7 expressed in HEK293 cells after 600 secs at -60 mV holding potential by ion works barracuda population patch clamp method; format: cell-based
[24] = Permeability of the compound at pH 5.5 by PAMPA; format: ADME; conditions: read-out: permeability

T1 sequence (Q15858 whole entry): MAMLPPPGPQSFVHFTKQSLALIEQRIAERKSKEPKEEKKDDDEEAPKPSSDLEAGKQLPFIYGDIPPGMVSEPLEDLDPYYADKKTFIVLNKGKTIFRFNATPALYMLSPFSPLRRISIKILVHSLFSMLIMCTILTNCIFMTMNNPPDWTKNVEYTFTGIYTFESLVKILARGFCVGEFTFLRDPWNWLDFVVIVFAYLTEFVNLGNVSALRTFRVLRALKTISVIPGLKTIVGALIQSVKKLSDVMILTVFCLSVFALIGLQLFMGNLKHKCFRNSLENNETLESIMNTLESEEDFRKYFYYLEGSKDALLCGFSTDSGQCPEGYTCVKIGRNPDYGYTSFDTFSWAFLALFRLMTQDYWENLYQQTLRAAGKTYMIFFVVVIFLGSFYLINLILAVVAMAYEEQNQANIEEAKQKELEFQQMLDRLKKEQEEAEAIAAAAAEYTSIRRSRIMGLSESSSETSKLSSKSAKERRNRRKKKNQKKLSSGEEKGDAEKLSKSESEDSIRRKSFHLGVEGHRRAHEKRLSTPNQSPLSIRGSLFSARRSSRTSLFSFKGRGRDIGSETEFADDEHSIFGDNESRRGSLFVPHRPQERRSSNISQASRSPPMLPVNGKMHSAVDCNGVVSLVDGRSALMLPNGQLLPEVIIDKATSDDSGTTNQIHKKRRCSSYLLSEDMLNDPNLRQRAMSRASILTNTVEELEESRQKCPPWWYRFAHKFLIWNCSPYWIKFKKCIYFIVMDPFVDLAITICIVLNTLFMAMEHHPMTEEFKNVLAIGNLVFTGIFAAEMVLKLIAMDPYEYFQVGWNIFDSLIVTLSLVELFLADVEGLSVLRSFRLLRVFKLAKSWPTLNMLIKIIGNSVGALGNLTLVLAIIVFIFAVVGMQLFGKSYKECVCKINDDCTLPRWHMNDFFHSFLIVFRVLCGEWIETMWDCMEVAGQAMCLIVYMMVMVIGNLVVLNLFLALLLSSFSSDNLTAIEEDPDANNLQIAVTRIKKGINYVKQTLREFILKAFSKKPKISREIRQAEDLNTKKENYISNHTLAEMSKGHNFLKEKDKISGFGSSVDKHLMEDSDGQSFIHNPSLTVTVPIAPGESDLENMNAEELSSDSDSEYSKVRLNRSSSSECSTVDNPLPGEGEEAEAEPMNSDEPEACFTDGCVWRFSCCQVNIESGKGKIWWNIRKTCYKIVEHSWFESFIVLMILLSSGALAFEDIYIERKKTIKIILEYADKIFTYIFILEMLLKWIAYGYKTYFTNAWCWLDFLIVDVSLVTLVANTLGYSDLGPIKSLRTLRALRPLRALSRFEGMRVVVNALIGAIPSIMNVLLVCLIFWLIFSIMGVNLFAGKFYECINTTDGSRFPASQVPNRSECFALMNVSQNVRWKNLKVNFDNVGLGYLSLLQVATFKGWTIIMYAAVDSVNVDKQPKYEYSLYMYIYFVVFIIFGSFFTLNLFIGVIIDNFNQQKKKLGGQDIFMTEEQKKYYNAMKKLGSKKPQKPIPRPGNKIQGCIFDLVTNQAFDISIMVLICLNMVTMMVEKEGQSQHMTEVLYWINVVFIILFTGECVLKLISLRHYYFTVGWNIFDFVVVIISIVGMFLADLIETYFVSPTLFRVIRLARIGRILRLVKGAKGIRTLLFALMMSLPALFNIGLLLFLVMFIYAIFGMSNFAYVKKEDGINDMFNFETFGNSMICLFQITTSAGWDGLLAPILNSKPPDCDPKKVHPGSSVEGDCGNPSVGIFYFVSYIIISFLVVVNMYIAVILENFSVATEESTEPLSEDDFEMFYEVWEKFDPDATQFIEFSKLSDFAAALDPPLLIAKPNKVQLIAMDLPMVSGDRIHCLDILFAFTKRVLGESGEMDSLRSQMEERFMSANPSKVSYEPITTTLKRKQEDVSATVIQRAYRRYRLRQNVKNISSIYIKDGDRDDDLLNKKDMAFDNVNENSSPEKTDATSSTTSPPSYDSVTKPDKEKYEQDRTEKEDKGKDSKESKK

SMILES: Cn1cc(-c2cnc(OCC3CC3)c(Cl)c2)c2ccc(C(=O)NS(=O)(=O)C3CC3)cc21
- IC50 [1]: 27 nM
- inhibition (INH) (Cytochrome P450 2C19 [2]): Not Active
- TDI (Cytochrome P450 2D6 [3]): Not Active
- remaining at 10 min, 0.5 µM [4]: 93%
- Papp B→A [5]: 11.4 ×10⁻⁶ cm/s
- TDI (Cytochrome P450 2C8 [6]): Not Active
- remaining at 10 min, 0.5 µM [7]: 77%
- efflux ratio [8]: > 7.6
- remaining at 10 min, 0.5 µM [9]: 97%
- inhibition (INH) (Cytochrome P450 2D6 [10]): Not Active
- Papp [11]: 39.1 ×10⁻⁶ cm/s
- inhibition (INH) (Cytochrome P450 2C9 [12]): Not Active
- inhibition (INH) (Cytochrome P450 2B6 [13]): Not Active
- TDI (Cytochrome P450 3A4 [14]): Not Active
- TDI (Cytochrome P450 2C19 [15]): Not Active
- fraction unbound [16]: < 0.001
- TDI (Cytochrome P450 2B6 [17]): Not Active
- TDI (Cytochrome P450 2C9 [18]): Not Active
- inhibition (INH) (Cytochrome P450 3A4 [19]): Not Active
- fraction unbound [20]: 0.002
- Papp A→B [21]: < 1.5 ×10⁻⁶ cm/s
- inhibition (INH) (Cytochrome P450 2C8 [22]): Not Active
- IC50 [23]: 82 nM

SMILES: Cn1cc(-c2ccc(C(F)(F)F)cc2)c2ccc(C(=O)NS(C)(=O)=O)cc21
- IC50 [1]: 96 nM
- inhibition (INH) (Cytochrome P450 2C19 [2]): Not Active
- TDI (Cytochrome P450 2D6 [3]): Not Active
- remaining at 10 min, 0.5 µM [4]: 54%
- Papp B→A [5]: 7.6 ×10⁻⁶ cm/s
- TDI (Cytochrome P450 2C8 [6]): Not Active
- remaining at 10 min, 0.5 µM [7]: 74%
- efflux ratio [8]: > 5.1
- remaining at 10 min, 0.5 µM [9]: 100%
- inhibition (INH) (Cytochrome P450 2D6 [10]): Not Active
- Papp [11]: 17.1 ×10⁻⁶ cm/s
- inhibition (INH) (Cytochrome P450 2C9 [12]): Not Active
- inhibition (INH) (Cytochrome P450 2B6 [13]): Not Active
- TDI (Cytochrome P450 3A4 [14]): Not Active
- TDI (Cytochrome P450 2C19 [15]): Not Active
- fraction unbound [16]: < 0.001
- TDI (Cytochrome P450 2B6 [17]): Not Active
- TDI (Cytochrome P450 2C9 [18]): Not Active
- Papp [24]: 97.2 ×10⁻⁶ cm/s
- inhibition (INH) (Cytochrome P450 3A4 [19]): Not Active
- fraction unbound [20]: < 0.001
- Papp A→B [21]: < 1.5 ×10⁻⁶ cm/s
- inhibition (INH) (Cytochrome P450 2C8 [22]): Not Active
- IC50 [23]: 88 nM

SMILES: Cn1cc(-c2ccc(C(F)(F)F)cc2)c2cc(F)c(C(=O)NS(C)(=O)=O)cc21
- IC50 [1]: 13 nM
- inhibition (INH) (Cytochrome P450 2C19 [2]): Not Active
- TDI (Cytochrome P450 2D6 [3]): Not Active
- remaining at 10 min, 0.5 µM [4]: 95%
- Papp B→A [5]: 12.5 ×10⁻⁶ cm/s
- TDI (Cytochrome P450 2C8 [6]): Not Active
- remaining at 10 min, 0.5 µM [7]: 99%
- efflux ratio [8]: 6.1
- remaining at 10 min, 0.5 µM [9]: 97%
- inhibition (INH) (Cytochrome P450 2D6 [10]): Not Active
- Papp [11]: 14 ×10⁻⁶ cm/s
- inhibition (INH) (Cytochrome P450 2C9 [12]): Not Active
- inhibition (INH) (Cytochrome P450 2B6 [13]): Not Active
- TDI (Cytochrome P450 3A4 [14]): Not Active
- TDI (Cytochrome P450 2C19 [15]): Not Active
- fraction unbound [16]: 0.002
- TDI (Cytochrome P450 2B6 [17]): Not Active
- TDI (Cytochrome P450 2C9 [18]): Not Active
- Papp [24]: 71.2 ×10⁻⁶ cm/s
- inhibition (INH) (Cytochrome P450 3A4 [19]): Not Active
- fraction unbound [20]: 0.005
- Papp A→B [21]: 2 ×10⁻⁶ cm/s
- inhibition (INH) (Cytochrome P450 2C8 [22]): Not Active

SMILES: CC(C)COc1ncc(-c2cn(C)c3cc(C(=O)NS(C)(=O)=O)c(F)cc23)cc1Cl
- IC50 [1]: 1.1 nM
- inhibition (INH) (Cytochrome P450 2C19 [2]): Not Active
- TDI (Cytochrome P450 2D6 [3]): Not Active
- remaining at 10 min, 0.5 µM [4]: 100%
- Papp B→A [5]: 6.7 ×10⁻⁶ cm/s
- TDI (Cytochrome P450 2C8 [6]): Not Active
- remaining at 10 min, 0.5 µM [7]: 85%
- efflux ratio [8]: 3.4
- remaining at 10 min, 0.5 µM [9]: 100%
- inhibition (INH) (Cytochrome P450 2D6 [10]): Not Active
- Papp [11]: 20.5 ×10⁻⁶ cm/s
- inhibition (INH) (Cytochrome P450 2C9 [12]): Not Active
- inhibition (INH) (Cytochrome P450 2B6 [13]): Not Active
- TDI (Cytochrome P450 3A4 [14]): Not Active
- TDI (Cytochrome P450 2C19 [15]): Not Active
- fraction unbound [16]: 0.001
- TDI (Cytochrome P450 2B6 [17]): Not Active
- TDI (Cytochrome P450 2C9 [18]): Not Active
- Papp [24]: 49.5 ×10⁻⁶ cm/s
- inhibition (INH) (Cytochrome P450 3A4 [19]): Not Active
- fraction unbound [20]: 0.002
- Papp A→B [21]: 2 ×10⁻⁶ cm/s
- inhibition (INH) (Cytochrome P450 2C8 [22]): Not Active
